This is an account of results in US20260083704A1, “LXR MODULATORS WITH BICYCLIC CORE MOIETY FOR TREATING DYSLIPIDEMIAS” (OrsoBio, Inc., priority 2022, published 2026).

SMILES strings stand for the structures.

Assay [1] concerns the target T1, GST-LXRβ ligand-binding domain (Homo sapiens, UniProt P55055).
T1 construct: amino acids 156-461; NP009052; made in house; host or cells: E. coli
T1 sequence (P55055 156-460 limits assumed): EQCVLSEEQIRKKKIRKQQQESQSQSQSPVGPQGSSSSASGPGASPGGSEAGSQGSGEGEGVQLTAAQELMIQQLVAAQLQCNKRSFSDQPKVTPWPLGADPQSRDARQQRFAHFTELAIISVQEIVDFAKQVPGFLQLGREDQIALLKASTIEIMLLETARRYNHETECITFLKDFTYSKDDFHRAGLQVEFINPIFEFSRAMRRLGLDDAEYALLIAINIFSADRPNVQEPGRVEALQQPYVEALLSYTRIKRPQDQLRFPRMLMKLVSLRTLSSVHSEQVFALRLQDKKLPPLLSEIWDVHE
Briefly: TR-FRETβ activity assay (NCoA3 coactivator peptide recruitment). It counts as biochemical. To be noted: 1 μM 24(S)-25-epoxycholesterol prestimulation. The protocol: Recombinant GST-LXRβ ligand-binding domain (LBD; amino acids 156-461; NP009052; SEQ ID NO:4) was expressed in E. coli and purified via gluthatione-sepharose affinity chromatography. N-terminally biotinylated NCoA3 coactivator peptide (SEQ ID NO:7) was chemically synthesized (Eurogentec). Assays were done in 384 well format (final assay volume of 25 μL/well) in a Tris/HCl buffer (pH 6.8) containing KCl, bovine serum albumin, Triton-X-100 and 1 μM 24(S)-25-epoxycholesterol as LXR-prestimulating agonist. Assay buffer was provided and test articles (potential LXR inverse agonists) were titrated to yield final assay concentrations of 50 μM, 16.7 μM, 5.6 μM, 1.9 μM, 0.6 μM, 0.2 μM, 0.07 μM, 0.02 μM, 0.007 μM, 0.002 μM with one vehicle control. Finally, a detection mix was added containing anti GST-Tb cryptate (CisBio; 610SAXLB) and Streptavidin-XL665 (CisBio; 610SAXLB) as fluorescent donor and acceptor, respectively, as well as the coactivator peptide and LXRβ-LBD protein (SEQ ID NO:4). The reaction was mixed thoroughly, equilibrated for 1 h at 4° C. and vicinity of LXRβ and coactivator peptide was detected by measurement of fluorescence in a VictorX4 multiplate reader (PerkinElmer Life Science) using 340 nm as excitation and 615 and 665 nm as emission wavelengths. Assays were performed in triplicates.
240 mM KCl, 1 μg/μL BSA, 0.002% Triton-X-100, […] anti GST-Tb cryptate, 2.5 ng/μL Streptavidin-XL665, coactivator peptide (400 nM), LXRβ protein (530 μg/mL, i.e. 76 nM).

The target in assay [2] is T2, LXRβ (Homo sapiens, UniProt P55055).
T2 sequence (P55055 1-460): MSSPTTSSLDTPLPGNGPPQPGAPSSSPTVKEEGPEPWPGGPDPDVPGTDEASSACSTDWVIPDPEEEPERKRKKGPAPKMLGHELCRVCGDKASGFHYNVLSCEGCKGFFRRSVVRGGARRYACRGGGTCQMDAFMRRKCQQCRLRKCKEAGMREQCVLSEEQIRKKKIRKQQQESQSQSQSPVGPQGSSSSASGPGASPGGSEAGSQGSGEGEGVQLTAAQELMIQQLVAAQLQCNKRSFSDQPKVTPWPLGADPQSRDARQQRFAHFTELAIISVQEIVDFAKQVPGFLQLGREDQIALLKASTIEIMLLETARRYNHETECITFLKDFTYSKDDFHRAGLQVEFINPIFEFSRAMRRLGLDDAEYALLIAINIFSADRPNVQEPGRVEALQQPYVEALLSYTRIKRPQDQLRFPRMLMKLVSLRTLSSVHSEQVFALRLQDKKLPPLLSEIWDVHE
In words: LXR Gal4 reporter transient transfection assay (mammalian two-hybrid, HEK293), LXRβ. To be noted: full length (FL) LXRβ, HEK293; read-out: FL-M2H Gal4β. The arrangement: LXRβ (amino acids 156-461); expressed in transfected cells; host or cells: HEK293. It counts as cell-based. On the procedure:
LXRα and LXRβ activity status was determined via detection of interaction with coactivator and corepressor proteins in mammalian two-hybrid experiments (M2H). For this, via transient transfection the full length (FL) proteins of LXRα (amino acids 1-447; NP005684; SEQ ID NO:1) or LXRβ-(amino acids 1-461; NP009052; SEQ ID NO:2) or the ligand-binding domains (LBD) of LXRα (amino acids 155-447 SEQ ID NO:3) or LXRβ (amino acids 156-461; SEQ ID NO:4) were expressed from pCMV-AD (Stratagene) as fusions to the transcriptional activation domain of NFkB. As cofactors, domains of either the steroid receptor coactivator 1 (SRC1; amino acids 552-887; SEQ ID NO:5) or of the corepressor NCoR (amino acids 1906-2312; NP006302; SEQ ID NO:6) were expressed as fusions to the DNA binding domain of the yeast transcription factor GAL4 (from pCMV-BD; Stratagene). Interaction was monitored via activation of a coexpressed Firefly Luciferase Reporter gene under control of a promoter containing repetitive GAL4 response elements (vector pFRLuc; Stratagene). Transfection efficiency was controlled via cotransfection of constitutively active pRL-CMV Renilla reniformis luciferase reporter (Promega). HEK293 cells were grown in minimum essential medium (MEM) with 2 mM L-glutamine and Earle's balanced salt solution supplemented with 8.3% fetal bovine serum, 0.1 mM non-essential amino acids, 1 mM sodium pyruvate, at 37° C. in 5% CO2. 3.5×10^4 cells/well were plated in 96-well cell culture plates in growth medium supplemented with 8.3% fetal bovine serum for 16-20 h to ˜90% confluency. For transfection, medium was taken off and LXR and cofactor expressing plasmids as well as the reporter plasmids are added in 30 μL OPTIMEM/well including polyethylene-imine (PEI) as vehicle. Typical amounts of plasmids transfected/well: pCMV-AD-LXR (5 ng), pCMV-BD-cofactor (5 ng), pFR-Luc (100 ng), pRL-CMV (0.5 ng). Compound stocks were prepared in DMSO, prediluted in MEM to a total volume of 120 μL, and added 4 h after addition of the transfection mixture (final vehicle concentration not exceeding 0.2%). Cells were incubated for additional 16 h, lysed for 10 min in 1×Passive Lysis Buffer (Promega) and Firefly and Renilla luciferase activities were measured sequentially in the same cell extract using buffers containing D-luciferine and coelenterazine, respectively. Measurements of luminescence were done in a BMG-luminometer.
The potencies of Compound 21/3 and its analog, Compound pre-6/3, against LXRα and LXRβ were evaluated in biochemical binding assays, cellular mammalian two-hybrid (M2H) interaction assays evaluating nuclear receptor co-repressor (NCOR) recruitment, and cellular reporter assays evaluating transcriptional activity (Table 5).

Compound `COc1ccc2c(c1)c(-c1ccsc1C#N)c(-c1cccs1)n2S(=O)(=O)c1ccc(Cl)cc1` [1/39] displayed an EC50 in assay [1] of over 10 µM. Turning to `COC(=O)c1ccc(-c2cccc(-c3c(-c4c(C)cccc4C#N)c4cc(F)ccc4n3S(=O)(=O)c3ccc(C(F)F)cc3)c2)c(Cl)c1` [1/122], the EC50 in assay [2] is under 0.1 µM; in assay [1], 0.1 to 1 µM. For `N#Cc1cccc(C#N)c1-c1c(-c2cccc(Br)c2)n(S(=O)(=O)c2ccc(C(F)F)cc2)c2ccc(F)cc12` [1/139], the EC50 in assay [2] is under 0.1 µM; in assay [1] it was 0.1 to 1 µM. Take `Cc1ccc(S(=O)(=O)n2c(-c3cccc(-c4ccc(CN)cc4Cl)c3)c(-c3ccsc3C#N)c3cc(F)ccc32)cc1` [2/1]: the EC50 in assay [2] and in assay [1] was 0.1 to 1 µM each time. In the case of `Cc1ccc(S(=O)(=O)n2c(-c3cccc(-c4ccc(C(C)(C)N)cc4Cl)c3)c(-c3ccsc3C#N)c3cc(F)ccc32)cc1` [2/2], the EC50 in assay [2] and in assay [1] was 0.1 to 1 µM throughout.

Turning to `Cc1ccc(S(=O)(=O)n2c(-c3cccc(-c4cc(F)c(CO)c(S(C)(=O)=O)c4)c3)c(-c3ccsc3C#N)c3cc(F)ccc32)cc1` [2/16], the EC50 in assay [2] and in assay [1] was under 0.1 µM each time. Turning to `Cc1ccc(S(=O)(=O)n2c(-c3cccc(-c4ccc(C(C)(C)C(=O)O)c(S(C)(=O)=O)c4)c3)c(-c3ccsc3C#N)c3cc(F)ccc32)cc1` [2/18], the EC50 in assay [2] is under 0.1 µM; in assay [1], 0.1 to 1 µM.

`Cc1ccc(S(=O)(=O)n2c(-c3cccc(C4(C)CC4C(=O)O)c3)c(-c3ccsc3C#N)c3cc(F)ccc32)cc1` (centres unmarked) [3/1]: the EC50 in assay [2] and in assay [1] was 0.1 to 1 µM each time.

Regarding `Cc1ccc(S(=O)(=O)n2c(-c3cccc(C4(C)CC4C(=O)O)c3)c(-c3ccsc3C#N)c3cc(F)ccc32)cc1` (centres unmarked) [3/2], the EC50 in assay [2] is under 0.1 µM; in assay [1] it was 1 to 10 µM.

Consider `COc1sccc1-c1c(-c2cccc(N3CC(C(=O)O)C3)c2)n(S(=O)(=O)c2ccc(C)cc2)c2ccc(F)cc12` [3/3], for which the EC50 in assay [2] fell in the range of 0.1 to 1 µM; in assay [1] it was 1 to 10 µM. Take `Cc1ccc(S(=O)(=O)n2c(-c3cccc(N4CC(C(=O)O)C4)c3)c(-c3ccsc3C(F)F)c3cc(F)ccc32)cc1` [3/4]: the EC50 was under 0.1 µM in assay [2] and 0.1 to 1 µM in assay [1]. As to `Cc1ccc(S(=O)(=O)n2c(-c3cccc(N4CC(C(=O)O)C4)c3)c(-c3ccsc3C=O)c3cc(F)ccc32)cc1` [3/5], the EC50 in assay [2] and in assay [1] was 0.1 to 1 µM each time. Take `COCc1sccc1-c1c(-c2cccc(N3CC(C(=O)O)C3)c2)n(S(=O)(=O)c2ccc(C)cc2)c2ccc(F)cc12` [3/6]: the figures for the EC50 in assay [2] and in assay [1] were 0.1 to 1 µM and 1 to 10 µM, respectively.

Turning to `Cc1ccc(S(=O)(=O)n2c(-c3cccc(N4CC(C(=O)O)C4)c3)c(-c3ccsc3/C=N/O)c3cc(F)ccc32)cc1` [3/7], the EC50 in assay [2] is under 0.1 µM; in assay [1], 1 to 10 µM. For `CCc1ccc(S(=O)(=O)n2c(-c3cccc(N4CC(C(=O)O)C4)c3)c(-c3ccsc3C#N)c3cc(F)ccc32)cc1` [3/10] the same measures were under 0.1 µM and 0.1 to 1 µM. `N#Cc1sccc1-c1c(-c2cccc(N3CC(C(=O)O)C3)c2)n(S(=O)(=O)c2ccc(OC(F)F)cc2)c2ccc(F)cc12` [3/11] yielded an EC50 in assay [1] of 1 to 10 µM. With `N#Cc1sccc1-c1c(-c2cccc(N3CC(C(=O)O)C3)c2)n(S(=O)(=O)c2ccc3c(c2)CCC3)c2ccc(F)cc12` [3/12], the EC50 in assay [2] was under 0.1 µM; in assay [1], 0.1 to 1 µM.

Take `N#Cc1sccc1-c1c(-c2cccc(N3CC(C(=O)O)C3)c2)n(S(=O)(=O)c2ccc3ccccc3c2)c2ccc(F)cc12` [3/13]: the EC50 in assay [2] is under 0.1 µM; in assay [1], 1 to 10 µM. In the case of `Cc1ccc(S(=O)(=O)n2c(-c3cccc(N4CC(C(=O)O)C4)c3)c(-c3ccsc3C#N)c3cc(F)ccc32)c(F)c1` [3/14], the EC50 in assay [2] was 0.1 to 1 µM; in assay [1], 1 to 10 µM. Consider `Cc1ccc(S(=O)(=O)n2c(-c3cccc(S(=O)(=O)CC(=O)O)c3)c(-c3ccsc3C#N)c3ccccc32)cc1` [3/15], for which the EC50 in assay [1] was in the range of 1 to 10 µM.

As for `CC1CCN(S(=O)(=O)n2c(-c3cccc(-c4ccc(C(=O)O)cc4Cl)c3)c(-c3ccsc3C#N)c3cc(F)ccc32)CC1` [3/21], the EC50 was under 0.1 µM in assay [2] and 0.1 to 1 µM in assay [1]. For `CC(O)(C(=O)O)c1ccc(-c2cccc(-c3c(-c4c(C#N)cccc4C#N)c4cc(F)ccc4n3S(=O)(=O)c3ccc(C(F)F)cc3)c2)c(Cl)c1` (centres unmarked) [11/60], the EC50 in assay [2] was under 0.1 µM. `N#Cc1sccc1-c1c(-c2cccs2)n(S(=O)(=O)c2ccc(Cl)cc2)c2cc(OCC(=O)O)ccc12` [15/3] registered an EC50 in assay [1] of over 10 µM. Regarding `N#Cc1sccc1-c1c(-c2ccccc2)n(S(=O)(=O)c2ccc(CC(=O)O)cc2)c2ccccc12` [27/1], in assay [1], the EC50 was in the range of 1 to 10 µM.

For `N#Cc1sccc1-c1c(-c2ccccc2)n(S(=O)(=O)c2ccc(-c3cccc(C(=O)O)c3)cc2)c2ccccc12` [27/2], the EC50 in assay [1] is 1 to 10 µM. `N#Cc1sccc1-c1c(-c2ccccc2)n(S(=O)(=O)c2ccc(CC(=O)O)s2)c2ccccc12` [27/3] had an EC50 in assay [1] of over 10 µM.

With `Cn1cnc(S(=O)(=O)n2c(-c3cccc(C4CC4C(=O)O)c3)c(-c3ccsc3C#N)c3ccccc32)c1` (centres unmarked) [30/10], in assay [1], the EC50 was over 10 µM.

Regarding `Cc1cccc(C#N)c1-c1c(-c2cccc(-c3ccc(C(=O)O)cc3Cl)c2)n(S(=O)(=O)c2ccc(C(F)F)cc2)c2ccc(F)cc12` [41/1, 2-chloro-3′-(3-(2-cyano-6-methylphenyl)-1-((4-(difluoro-methyl)phenyl)sulfonyl)-5-fluoro-1H-indol-2-yl)-[1,1′-biphenyl]-4-carboxylic acid], the EC50 in assay [1] is under 0.1 µM.

As for `N#Cc1sccc1-c1c(-c2cccs2)n(S(=O)(=O)c2ccc(Cl)cc2)c2cc(C(=O)O)ccc12` [Compound 19], the EC50 in assay [1] is over 10 µM.
